Test results: patent publication US8937078B2, “Quinazolinones as prolyl hydroxylase inhibitors” (Janssen Pharmaceutica NV, priority 2009, dated 2015)

Experiments:
human PHD2 (PHD2181-417) = biological target: T1, human PHD2 (PHD2181-417) (Homo sapiens, UniProt Q9GZT9); experiment: PHD enzymatic assay ([14C]-succinic acid production); type: biochemical; conditions: PHD2181-417, HIF-1α peptide 10 μM, average of results; read-out: Enzyme pIC50 (converted)
T1 construct: Smt (SUMO) tag (cleaved yes); made in house; host or cells: E. coli BL21 (pBAD vector)
Outline: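 Activity measured as [14C]-succinic acid formed from [5-14C]-2-oxoglutarate over 10 minutes, with peptide substrate at 10 μM, in Tris-HCl pH 7.5 buffer containing catalase, DTT and ascorbate. Unreacted oxoglutarate removed by DNP derivatisation; supernatant beta-counted.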

Hep-3B cells = experiment: Cellular assay: erythropoietin secretion in Hep-3B cells; type: cell-based, human; conditions: Homo sapiens, Hep3B, 100 μM compound, 24 hours, percent of EPO secretion relative to assay control compound 7-[(4-Chloro-phenyl)-(5-methyl-isoxazol-3-ylamino)-methyl]-quinolin-8-ol, read-out: Cellular % EPO Stimulation
Outline: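 Hep-3B cells in DMEM with 10% FBS, treated 24 h after plating with compounds at 100 μM final for a further 24 h. Secreted EPO in supernatant measured by MSD electrochemiluminescence sandwich immunoassay with anti-EPO detection antibody.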

T1 sequence (Q9GZT9 181-417): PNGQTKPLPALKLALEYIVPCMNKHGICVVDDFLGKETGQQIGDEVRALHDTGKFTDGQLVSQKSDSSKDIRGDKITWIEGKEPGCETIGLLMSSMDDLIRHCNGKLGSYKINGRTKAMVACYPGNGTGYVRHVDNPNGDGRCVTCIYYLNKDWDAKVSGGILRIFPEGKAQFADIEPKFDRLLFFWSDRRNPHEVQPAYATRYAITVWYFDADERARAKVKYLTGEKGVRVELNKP

SMILES	IC50 (human PHD2 (PHD2181-417))	Emax at 100 µM (Hep-3B cells)
CCOc1ccc2c(=O)[nH]c(-n3cc(C(=O)O)cn3)nc2c1 [Example 152, 1-(7-Ethoxy-4-oxo-3,4-dihydro-quinazolin-2-yl)-1H-pyrazole-4-carboxylic acid]	158 nM	38%
O=C(O)c1cnn(-c2nc3ccc(Cl)cc3c(=O)[nH]2)c1 [Example 153, 1-(6-Chloro-4-oxo-3,4-dihydro-quinazolin-2-yl)-1H-pyrazole-4-carboxylic acid]	39.8 nM	22%
O=C(O)c1cnn(-c2nc3cc(O)ccc3c(=O)[nH]2)c1 [Example 154, 1-(7-Hydroxy-4-oxo-3,4-dihydro-quinazolin-2-yl)-1H-pyrazole-4-carboxylic acid]	50.1 nM	12%
CSc1ccc2nc(-n3cc(C(=O)O)cn3)[nH]c(=O)c2c1 [Example 155, 1-(6-Methylsulfanyl-4-oxo-3,4-dihydro-quinazolin-2-yl)-1H-pyrazole-4-carboxylic acid]	31.6 nM	40%
O=C(O)c1cnn(-c2nc3ccc(SC(F)(F)F)cc3c(=O)[nH]2)c1 [Example 156, 1-(4-Oxo-6-trifluoromethylsulfanyl-3,4-dihydro-quinazolin-2-yl)-1H-pyrazole-4-carboxylic acid]	31.6 nM	19%
CS(=O)(=O)c1ccc2nc(-n3cc(C(=O)O)cn3)[nH]c(=O)c2c1 [Example 157, 1-(6-Methanesulfonyl-4-oxo-3,4-dihydro-quinazolin-2-yl)-1H-pyrazole-4-carboxylic acid]	31.6 nM	17%
CSc1cc2c(=O)[nH]c(-n3cc(C(=O)O)cn3)nc2cc1Cl [Example 158, 1-(7-Chloro-6-methylsulfanyl-4-oxo-3,4-dihydro-quinazolin-2-yl)-1H-pyrazole-4-carboxylic acid]	39.8 nM	15%
O=C(O)c1cnn(-c2nc3cc(Cl)c(SC(F)(F)F)cc3c(=O)[nH]2)c1 [Example 159, 1-(7-Chloro-4-oxo-6-trifluoromethylsulfanyl-3,4-dihydro-quinazolin-2-yl)-1H-pyrazole-4-carboxylic acid]	25.1 nM	16%
O=C(O)c1cnn(-c2nc3cc(Cl)c([S+]([O-])C(F)(F)F)cc3c(=O)[nH]2)c1 (stereo not drawn) [Example 160, 1-(7-Chloro-4-oxo-6-trifluoromethanesulfinyl-3,4-dihydro-quinazolin-2-yl)-1H-pyrazole-4-carboxylic acid]	39.8 nM	13%
O=C(O)c1cnn(-c2nc3ccc(S(=O)(=O)N4CCCC4)cc3c(=O)[nH]2)c1 [Example 161, 1-[4-Oxo-6-(pyrrolidine-1-sulfonyl)-3,4-dihydro-quinazolin-2-yl]-1H-pyrazole-4-carboxylic acid]	39.8 nM	17%
O=C(O)c1cnn(-c2nc3ccc(C(=O)N4CCCC4)cc3c(=O)[nH]2)c1 [Example 162, 1-[4-Oxo-6-(pyrrolidine-1-carbonyl)-3,4-dihydro-quinazolin-2-yl]-1H-pyrazole-4-carboxylic acid]	31.6 nM	15%
Cc1cccc(C)c1NC(=O)c1ccc2nc(-n3cc(C(=O)O)cn3)[nH]c(=O)c2c1 [Example 163, 1-[6-(2,6-Dimethyl-phenylcarbamoyl)-4-oxo-3,4-dihydro-quinazolin-2-yl]-1H-pyrazole-4-carboxylic acid]	39.8 nM	14%
O=C(O)c1cnn(-c2nc3ccc([N+](=O)[O-])cc3c(=O)[nH]2)c1 [Example 164, 1-(6-Nitro-4-oxo-3,4-dihydro-quinazolin-2-yl)-1H-pyrazole-4-carboxylic acid]	25.1 nM	17%
O=C(O)c1cnn(-c2nc3ccc(NC(=O)c4ccccc4)cc3c(=O)[nH]2)c1 [Example 165, 1-(6-Benzoylamino-4-oxo-3,4-dihydro-quinazolin-2-yl)-1H-pyrazole-4-carboxylic acid]	25.1 nM	19%
Cc1cccc(C)c1C(=O)Nc1ccc2nc(-n3cc(C(=O)O)cn3)[nH]c(=O)c2c1 [Example 166, 1-[6-(2,6-Dimethyl-benzoylamino)-4-oxo-3,4-dihydro-quinazolin-2-yl]-1H-pyrazole-4-carboxylic acid]	31.6 nM	11%
CC(=O)Nc1ccc2nc(-n3cc(C(=O)O)cn3)[nH]c(=O)c2c1 [Example 167, 1-(6-Acetylamino-4-oxo-3,4-dihydro-quinazolin-2-yl)-1H-pyrazole-4-carboxylic acid]	31.6 nM	26%
O=C(Nc1ccccc1)Nc1ccc2nc(-n3cc(C(=O)O)cn3)[nH]c(=O)c2c1 [Example 168, 1-[4-Oxo-6-(3-phenyl-ureido)-3,4-dihydro-quinazolin-2-yl]-1H-pyrazole-4-carboxylic acid]	31.6 nM	4%

SMILES	IC50 (human PHD2 (PHD2181-417))	Emax at 100 µM (Hep-3B cells)
O=C(O)c1cnn(-c2nc3ccc(NS(=O)(=O)c4ccccc4)cc3c(=O)[nH]2)c1 [Example 169, 1-(6-Benzenesulfonylamino-4-oxo-3,4-dihydro-quinazolin-2-yl)-1H-pyrazole-4-carboxylic acid]	25.1 nM	34%
CS(=O)(=O)Nc1ccc2nc(-n3cc(C(=O)O)cn3)[nH]c(=O)c2c1 [Example 170, 1-(6-Methanesulfonylamino-4-oxo-3,4-dihydro-quinazolin-2-yl)-1H-pyrazole-4-carboxylic acid]	31.6 nM	15%
O=C(O)c1cnn(-c2nc3ccc(NCc4ccccc4)cc3c(=O)[nH]2)c1 [Example 171, 1-(6-Benzylamino-4-oxo-3,4-dihydro-quinazolin-2-yl)-1H-pyrazole-4-carboxylic acid]	25.1 nM	34%
CCNc1ccc2nc(-n3cc(C(=O)O)cn3)[nH]c(=O)c2c1 [Example 172, 1-(6-Ethylamino-4-oxo-3,4-dihydro-quinazolin-2-yl)-1H-pyrazole-4-carboxylic acid]	25.1 nM	20%
Cc1ccccc1CNc1ccc2nc(-n3cc(C(=O)O)cn3)[nH]c(=O)c2c1 [Example 173, 1-[6-(2-Methyl-benzylamino)-4-oxo-3,4-dihydro-quinazolin-2-yl]-1H-pyrazole-4-carboxylic acid]	20 nM	101%
O=C(O)c1cnn(-c2nc3ccc(NCc4ccccc4Cl)cc3c(=O)[nH]2)c1 [Example 174, 1-[6-(2-Chloro-benzylamino)-4-oxo-3,4-dihydro-quinazolin-2-yl]-1H-pyrazole-4-carboxylic acid]	20 nM	24%
Cc1cccc(C)c1CNc1ccc2nc(-n3cc(C(=O)O)cn3)[nH]c(=O)c2c1 [Example 175, 1-[6-(2,6-Dimethyl-benzylamino)-4-oxo-3,4-dihydro-quinazolin-2-yl]-1H-pyrazole-4-carboxylic acid]	31.6 nM	97%
O=C(O)c1cnn(-c2nc3ccc(NCc4c(F)cccc4F)cc3c(=O)[nH]2)c1 [Example 176, 1-[6-(2,6-Difluoro-benzylamino)-4-oxo-3,4-dihydro-quinazolin-2-yl]-1H-pyrazole-4-carboxylic acid]	39.8 nM	26%
N#Cc1ccccc1CNc1ccc2nc(-n3cc(C(=O)O)cn3)[nH]c(=O)c2c1 [Example 177, 1-[6-(2-Cyano-benzylamino)-4-oxo-3,4-dihydro-quinazolin-2-yl]-1H-pyrazole-4-carboxylic acid]	50.1 nM	13%
N#Cc1cccc(CNc2ccc3nc(-n4cc(C(=O)O)cn4)[nH]c(=O)c3c2)c1 [Example 178, 1-[6-(3-Cyano-benzylamino)-4-oxo-3,4-dihydro-quinazolin-2-yl]-1H-pyrazole-4-carboxylic acid]	20 nM	12%
NC(=O)c1cccc(CNc2ccc3nc(-n4cc(C(=O)O)cn4)[nH]c(=O)c3c2)c1 [Example 179, 1-[6-(3-Carbamoyl-benzylamino)-4-oxo-3,4-dihydro-quinazolin-2-yl]-1H-pyrazole-4-carboxylic acid]	25.1 nM	12%
Nc1ccc2nc(-n3cc(C(=O)O)cn3)[nH]c(=O)c2c1 [Example 180, 1-[6-amino-4-oxo-3,4-dihydro-quinazolin-2-yl]-1H-pyrazole-4-carboxylic acid]	63.1 nM	8%
O=C(O)c1cnn(-c2nc3ccc(NCc4c(Cl)cccc4Cl)cc3c(=O)[nH]2)c1 [Example 181, 1-[6-(2,6-Dichloro-benzylamino)-4-oxo-3,4-dihydro-quinazolin-2-yl]-1H-pyrazole-4-carboxylic acid]	25.1 nM	118%
O=C(O)c1cnn(-c2nc3ccc(NCc4cccc(Cl)c4)cc3c(=O)[nH]2)c1 [Example 182, 1-[6-(3-Chloro-benzylamino)-4-oxo-3,4-dihydro-quinazolin-2-yl]-1H-pyrazole-4-carboxylic acid]	25.1 nM	26%
Cc1ccc(CNc2ccc3nc(-n4cc(C(=O)O)cn4)[nH]c(=O)c3c2)cc1 [Example 183, 1-[6-(4-methyl-benzylamino)-4-oxo-3,4-dihydro-quinazolin-2-yl]-1H-pyrazole-4-carboxylic acid]	15.8 nM	89%
O=C(O)c1cnn(-c2nc3cc(-c4ccccc4)ccc3c(=O)[nH]2)c1 [Example 184, 1-(4-Oxo-7-phenyl-3,4-dihydro-quinazolin-2-yl)-1H-pyrazole-4-carboxylic acid]	79.4 nM	12%
